{
  "source": "patent US20240180884A1",
  "about": "“PYRIDOSTIGMINE FOR USE IN THE TREATMENT OF COVID-19” (priority 2021, published 2024)",
  "system": "SARS-COV-2 infection (severe COVID-19)",
  "assay": "Randomized, parallel, double-blind, placebo-controlled clinical trial of oral pyridostigmine in adults hospitalized due to severe COVID-19",
  "assay_type": "in vivo, human",
  "conditions": "for Primary outcome: Invasive mechanical ventilation or death - %: N = 94, day 28, placebo 23.4%; for Death - % (28-day case fatality): day 28, 60 mg/day orally, placebo 20.2%; for Discharge - % (probability of being discharged from the hospital within 28 days of randomization): placebo 79.8%",
  "procedure": "The trial was conducted to reduce the incidence of mechanical ventilation or death in adults hospitalized due to severe COVID-19. A randomized, parallel, double-blind, placebo-controlled clinical trial was conducted. Participants were randomized (1:1 ratio) to receive oral pyridostigmine at a dose of 60 mg/day orally or an identical placebo (drug-grade starch) until the occurrence of any of the a priori specified outcomes, the hospital discharge or a maximum period of 14 days of hospital confinement, whichever comes first. The study was externally and independently watched and monitored by an independent Data and Security Monitoring Committee (DSMB). The study was conducted in two parts: an initial phase aimed at determining safety (from May 5 to Jul. 4, 2020) in which the first 44 participants were evaluated, followed by a part of a phase aimed at evaluating the effect, or lack thereof, of pyridostigmine in patients with severe COVID-19 (Jul. 5, 2020 to Jan. 30, 2021).\nAdult hospitalized patients (>18 years) with confirmed SARS-COV-2 infection based on a positive RT-PCR test for SARS-COV-2 ribonucleic acid in a respiratory sample (nasopharyngeal or nasal swab) and a imaging study compatible with pneumonia, and at least one criterion of high risk of death.\nParticipants were randomized 1:1, with parallel allocation. Demographic information was collected from the participants at baseline, including age, sex, presence of comorbidities (including diabetes mellitus, hypertension, obesity, cardiovascular disease, lung disease or other chronic medical conditions). Participants who had already been discharged from the hospital by day 28 were contacted by phone to assess their vital and functional status.\nBased on early evidence from China, an estimated 25% of patients hospitalized with severe SARS-COV-2 infection would develop complications that would lead to the need for invasive mechanical ventilation or death. Consequently, it is estimated that this sample size would allow us to identify with a power of 80% a reduction in the need for invasive mechanical ventilation or death of 10% in the group that received pyridostigmine compared to the group that received placebo, using a two-tailed […] at the significance level of 0.05. […] Based on the results of said analysis and with the data presented here, it was decided to terminate the study early.\nThe study was carried out at Instituto Nacional de Ciencias Médicas y Nutrición Salvador Zubirán (principal center) and Instituto Nacional de Cardiología Ignacio Chávez (recruiting center), two COVID-19 designated hospitals in Mexico City, Mexico.\nAn intention-to-treat analysis was performed comparing the proportion of outcomes between both therapeutic arms using the X^2 test. A multivariate logistic regression model was used to evaluate the variables associated with primary outcomes.",
  "key": {"[1]": {"conditions": "at the proposed dose of pyridostigmine (60 mg/day)"}, "[2]": {"conditions": "secondary outcome, 60 mg/day orally, N = 94"}},
  "data": [
    {"smiles": "CN(C)C(=O)Oc1ccc[n+](C)c1", "note": "[Pyridostigmine]", "values": [
      {"measurement": "Median time (IQR) from randomization to discharge", "setting": "60 mg/day orally, N = 94", "result": 5, "unit": "days"},
      {"measurement": "Rate of adverse events", "setting": "[1]", "result": "5-6%"},
      {"measurement": "Serious adverse effects", "setting": "[1]", "result": "no serious adverse effects reported"},
      {"measurement": "Primary outcome: Invasive mechanical ventilation or death - %", "setting": "hospitalized severe COVID-19 patients, 60 mg/day orally up to 14 days, p=0.03", "result": "(11.7) %"},
      {"measurement": "Primary outcome: Invasive mechanical ventilation or death - %", "setting": "hospitalized severe COVID-19 patients, 60 mg/day orally up to 14 days, p=0.03, listed as pyridostigmine", "result": 11.7, "unit": "%"},
      {"measurement": "Primary outcome: Invasive mechanical ventilation or death - no.", "setting": "hospitalized severe COVID-19 patients, 60 mg/day orally up to 14 days, N = 94, intention to treat, day 28", "result": 11},
      {"measurement": "Death after invasive mechanical ventilation (text, among ventilated patients)", "setting": "placebo 57.1%, no difference between groups", "result": 33.3, "unit": "%"},
      {"measurement": "Risk index, 28-day case fatality", "setting": "pyridostigmine vs. placebo, 95% CI 0.16 to 0.7, p=0.01", "result": 0.33},
      {"measurement": "Hazard ratio, invasive mechanical ventilation or death on day 28", "setting": "pyridostigmine vs. placebo, 95% CI 0.24 to 0.94, p=0.03", "result": 0.47},
      {"measurement": "Death after invasive mechanical ventilation - no.", "setting": "[2]", "result": 2},
      {"measurement": "Invasive mechanical ventilation - %", "setting": "[2]", "result": "(6.4) %"},
      {"measurement": "Invasive mechanical ventilation - no.", "setting": "[2]", "result": 6},
      {"measurement": "Invasive mechanical ventilation - %", "setting": "secondary outcome, 60 mg/day orally, N = 94, listed as pyridostigmine", "result": 6.3, "unit": "%"},
      {"measurement": "Death - no.", "setting": "secondary outcome, before day 28, 60 mg/day orally, N = 94", "result": 7},
      {"measurement": "Death - % (28-day case fatality)", "setting": "secondary outcome, N = 94, p=0.01", "result": "(7.5) %"},
      {"measurement": "Death - % (28-day case fatality)", "setting": "secondary outcome, N = 94, p=0.01, listed as pyridostigmine", "result": 7.4, "unit": "%"},
      {"measurement": "Death after invasive mechanical ventilation - %", "setting": "secondary outcome, percent of all N = 94", "result": "(2.1) %"},
      {"measurement": "Discharge - no.", "setting": "secondary outcome, within 28 days of randomization, N = 94", "result": 87},
      {"measurement": "Discharge - % (probability of being discharged from the hospital within 28 days of randomization)", "setting": "within 28 days of randomization, N = 94, p=0.01", "result": "(92.6) %"},
      {"measurement": "Discharge - % (probability of being discharged from the hospital within 28 days of randomization)", "setting": "within 28 days of randomization, N = 94, p=0.01, listed as pyridostigmine", "result": 92.6, "unit": "%"}
    ]}
  ]
}
